From ChEMBL document CHEMBL1201862, “PubChem BioAssay data set” (2004)
Active and inactive are the calls of the source.

Key:
Format in all cases: functional
[1] = biological target: Ribosomal protein S6 kinase alpha-3 (Homo sapiens, UniProt P51812);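 also: measured within a kinome-wide profiling panel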
[2] = biological target: RAC-gamma serine/threonine-protein kinase (Homo sapiens, UniProt Q9Y243)
[3] = biological target: Mast/stem cell growth factor receptor Kit (Homo sapiens, UniProt P10721);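 also: KIT entry within a kinase panel assay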
Sequence of Mast/stem cell growth factor receptor Kit (P10721 whole entry): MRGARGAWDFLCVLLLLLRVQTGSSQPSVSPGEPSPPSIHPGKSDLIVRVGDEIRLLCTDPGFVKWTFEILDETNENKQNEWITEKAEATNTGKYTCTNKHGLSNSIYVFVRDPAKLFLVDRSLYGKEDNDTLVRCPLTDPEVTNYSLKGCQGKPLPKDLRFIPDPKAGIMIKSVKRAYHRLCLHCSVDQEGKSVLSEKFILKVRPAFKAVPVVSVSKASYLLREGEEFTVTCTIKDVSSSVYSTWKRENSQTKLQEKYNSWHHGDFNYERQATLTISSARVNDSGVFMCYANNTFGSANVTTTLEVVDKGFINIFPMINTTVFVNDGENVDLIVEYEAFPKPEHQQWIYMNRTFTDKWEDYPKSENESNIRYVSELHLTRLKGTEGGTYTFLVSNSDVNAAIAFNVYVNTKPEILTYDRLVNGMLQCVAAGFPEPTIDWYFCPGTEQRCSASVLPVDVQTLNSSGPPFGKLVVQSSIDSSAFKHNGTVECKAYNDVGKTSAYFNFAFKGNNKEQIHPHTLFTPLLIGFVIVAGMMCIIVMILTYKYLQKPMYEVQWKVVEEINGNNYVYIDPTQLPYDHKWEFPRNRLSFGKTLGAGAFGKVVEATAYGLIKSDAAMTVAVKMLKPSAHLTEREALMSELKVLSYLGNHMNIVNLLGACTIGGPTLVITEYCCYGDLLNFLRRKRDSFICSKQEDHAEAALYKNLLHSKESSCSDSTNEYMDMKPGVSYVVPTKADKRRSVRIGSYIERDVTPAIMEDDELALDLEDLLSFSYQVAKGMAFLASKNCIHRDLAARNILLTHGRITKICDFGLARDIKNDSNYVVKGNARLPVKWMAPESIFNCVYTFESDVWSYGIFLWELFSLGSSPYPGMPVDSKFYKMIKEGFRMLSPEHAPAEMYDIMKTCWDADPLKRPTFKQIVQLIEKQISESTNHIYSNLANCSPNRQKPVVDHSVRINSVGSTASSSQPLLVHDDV

[4] = biological target: Fibroblast growth factor receptor 1 (Homo sapiens, UniProt P11362)
Sequence of Fibroblast growth factor receptor 1 (P11362 whole entry): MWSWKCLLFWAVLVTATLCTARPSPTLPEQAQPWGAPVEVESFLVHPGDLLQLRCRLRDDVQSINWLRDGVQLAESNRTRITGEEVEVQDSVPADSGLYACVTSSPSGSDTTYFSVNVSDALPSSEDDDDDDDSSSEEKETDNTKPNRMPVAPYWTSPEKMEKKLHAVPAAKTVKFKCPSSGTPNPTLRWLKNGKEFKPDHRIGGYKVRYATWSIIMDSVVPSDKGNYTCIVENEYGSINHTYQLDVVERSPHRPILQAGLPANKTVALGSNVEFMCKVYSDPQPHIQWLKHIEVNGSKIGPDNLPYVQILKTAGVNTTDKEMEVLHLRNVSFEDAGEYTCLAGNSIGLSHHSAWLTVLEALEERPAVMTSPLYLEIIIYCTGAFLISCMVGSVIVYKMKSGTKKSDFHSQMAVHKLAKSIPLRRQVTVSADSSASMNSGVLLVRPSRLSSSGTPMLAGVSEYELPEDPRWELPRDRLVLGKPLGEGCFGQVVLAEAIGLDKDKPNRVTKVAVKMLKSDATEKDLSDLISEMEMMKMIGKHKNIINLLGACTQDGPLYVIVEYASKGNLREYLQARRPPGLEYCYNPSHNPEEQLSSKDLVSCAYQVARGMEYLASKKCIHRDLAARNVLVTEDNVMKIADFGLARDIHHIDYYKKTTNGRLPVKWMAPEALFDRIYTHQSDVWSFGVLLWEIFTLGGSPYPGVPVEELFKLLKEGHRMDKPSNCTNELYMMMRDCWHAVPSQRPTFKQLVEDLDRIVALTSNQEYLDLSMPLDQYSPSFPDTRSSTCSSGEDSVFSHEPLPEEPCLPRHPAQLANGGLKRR

[5] = biological target: MAP kinase-activated protein kinase 3 (Homo sapiens, UniProt Q16644);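 also: value comes from a kinome-wide profiling panel in which MAPKAPK3 is one of the panel members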
Sequence of MAP kinase-activated protein kinase 3 (Q16644 whole entry): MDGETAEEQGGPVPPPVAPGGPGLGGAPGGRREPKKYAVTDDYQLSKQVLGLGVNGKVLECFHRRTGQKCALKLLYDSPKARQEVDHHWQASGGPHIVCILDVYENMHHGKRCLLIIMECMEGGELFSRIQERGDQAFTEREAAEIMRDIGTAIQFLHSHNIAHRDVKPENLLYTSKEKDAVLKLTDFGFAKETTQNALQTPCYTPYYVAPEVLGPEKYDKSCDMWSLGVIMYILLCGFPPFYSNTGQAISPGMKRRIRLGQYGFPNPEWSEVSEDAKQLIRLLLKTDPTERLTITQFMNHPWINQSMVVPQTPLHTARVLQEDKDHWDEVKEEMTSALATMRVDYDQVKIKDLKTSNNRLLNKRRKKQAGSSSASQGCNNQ

[6] = biological target: T1, Caspase-3 (Homo sapiens, UniProt P42574);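 also: Dose-response selectivity test against caspase-3 for candidate inhibitors of sentrin-specific proteases (SENPs)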
T1 sequence (P42574 whole entry): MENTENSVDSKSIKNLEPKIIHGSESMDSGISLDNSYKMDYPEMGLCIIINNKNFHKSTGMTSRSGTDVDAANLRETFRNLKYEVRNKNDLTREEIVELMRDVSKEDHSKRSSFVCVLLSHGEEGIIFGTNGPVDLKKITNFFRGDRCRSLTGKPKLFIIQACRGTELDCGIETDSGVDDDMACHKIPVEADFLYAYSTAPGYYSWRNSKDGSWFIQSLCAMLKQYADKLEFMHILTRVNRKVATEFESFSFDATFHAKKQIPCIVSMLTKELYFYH

[7] = biological target: T2, Sentrin-specific protease 7 (Homo sapiens, UniProt Q9BQF6);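 also: Luminescence-based dose-response confirmation of ultra-high-throughput screening hits, measuring inhibition of SENP7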
T2 sequence (Q9BQF6 whole entry): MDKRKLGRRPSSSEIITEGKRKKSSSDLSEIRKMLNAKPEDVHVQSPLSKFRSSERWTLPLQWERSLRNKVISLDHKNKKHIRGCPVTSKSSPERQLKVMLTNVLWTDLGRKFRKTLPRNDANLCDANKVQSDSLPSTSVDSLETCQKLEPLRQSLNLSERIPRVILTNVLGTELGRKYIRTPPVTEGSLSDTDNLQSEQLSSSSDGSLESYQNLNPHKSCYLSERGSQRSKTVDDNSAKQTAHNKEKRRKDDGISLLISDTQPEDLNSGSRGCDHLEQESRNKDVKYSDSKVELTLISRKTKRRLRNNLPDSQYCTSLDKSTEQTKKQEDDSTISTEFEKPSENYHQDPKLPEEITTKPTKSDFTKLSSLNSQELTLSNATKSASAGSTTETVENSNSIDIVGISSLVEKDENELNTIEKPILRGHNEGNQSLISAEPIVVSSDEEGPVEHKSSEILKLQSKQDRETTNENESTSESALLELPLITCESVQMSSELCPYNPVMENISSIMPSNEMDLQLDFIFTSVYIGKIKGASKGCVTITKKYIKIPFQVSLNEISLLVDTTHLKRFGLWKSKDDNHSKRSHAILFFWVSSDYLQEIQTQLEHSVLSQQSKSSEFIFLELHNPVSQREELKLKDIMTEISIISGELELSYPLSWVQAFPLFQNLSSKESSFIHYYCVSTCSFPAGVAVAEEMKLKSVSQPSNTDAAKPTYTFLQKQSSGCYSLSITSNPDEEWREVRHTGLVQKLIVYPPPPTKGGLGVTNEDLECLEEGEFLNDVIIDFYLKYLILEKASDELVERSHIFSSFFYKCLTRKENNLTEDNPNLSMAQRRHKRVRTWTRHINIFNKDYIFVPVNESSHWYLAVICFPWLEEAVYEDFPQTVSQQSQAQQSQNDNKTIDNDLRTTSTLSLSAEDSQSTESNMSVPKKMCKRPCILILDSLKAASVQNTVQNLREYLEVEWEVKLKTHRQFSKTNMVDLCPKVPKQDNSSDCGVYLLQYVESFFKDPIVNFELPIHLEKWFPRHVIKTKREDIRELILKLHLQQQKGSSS

[8] = biological target: T3, Sentrin-specific protease 6 (Homo sapiens, UniProt Q9GZR1);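 also: Luminescence-based dose-response confirmatory assay of SENP6 inhibition, following up an ultra-high-throughput screen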
T3 sequence (Q9GZR1 whole entry): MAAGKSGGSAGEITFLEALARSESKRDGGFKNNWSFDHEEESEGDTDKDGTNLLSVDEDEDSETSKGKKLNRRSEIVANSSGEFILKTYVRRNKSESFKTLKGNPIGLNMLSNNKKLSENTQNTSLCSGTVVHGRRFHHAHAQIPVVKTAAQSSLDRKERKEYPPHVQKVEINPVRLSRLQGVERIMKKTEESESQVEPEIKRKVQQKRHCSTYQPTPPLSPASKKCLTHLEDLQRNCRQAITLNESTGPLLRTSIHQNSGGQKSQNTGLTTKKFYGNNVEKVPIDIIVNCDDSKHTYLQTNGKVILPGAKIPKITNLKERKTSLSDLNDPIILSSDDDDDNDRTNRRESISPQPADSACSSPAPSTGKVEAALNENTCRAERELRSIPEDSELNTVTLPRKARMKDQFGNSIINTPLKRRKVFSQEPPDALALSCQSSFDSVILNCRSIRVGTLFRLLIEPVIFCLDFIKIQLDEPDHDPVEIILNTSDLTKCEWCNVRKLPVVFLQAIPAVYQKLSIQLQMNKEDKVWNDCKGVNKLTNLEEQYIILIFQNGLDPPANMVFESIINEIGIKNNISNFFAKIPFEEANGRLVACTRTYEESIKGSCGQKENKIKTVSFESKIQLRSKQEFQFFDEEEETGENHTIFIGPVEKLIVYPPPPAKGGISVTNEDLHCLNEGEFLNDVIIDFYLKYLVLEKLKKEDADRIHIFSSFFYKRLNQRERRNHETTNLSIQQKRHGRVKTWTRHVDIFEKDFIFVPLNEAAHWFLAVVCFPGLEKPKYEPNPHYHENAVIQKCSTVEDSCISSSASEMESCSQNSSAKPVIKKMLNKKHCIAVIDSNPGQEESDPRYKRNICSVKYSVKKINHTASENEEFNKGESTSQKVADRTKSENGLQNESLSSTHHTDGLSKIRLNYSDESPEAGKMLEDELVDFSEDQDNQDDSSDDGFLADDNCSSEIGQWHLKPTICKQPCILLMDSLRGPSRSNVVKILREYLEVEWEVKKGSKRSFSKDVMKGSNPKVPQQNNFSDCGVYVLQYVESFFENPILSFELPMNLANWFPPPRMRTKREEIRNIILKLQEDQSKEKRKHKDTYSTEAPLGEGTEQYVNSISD

[9] = biological target: T4, Sentrin-specific protease 8 (Homo sapiens, UniProt Q96LD8);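 also: luminescence read-out of SENP8 inhibition, dose-response confirmation following an ultra-high-throughput screen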
T4 sequence (Q96LD8 whole entry): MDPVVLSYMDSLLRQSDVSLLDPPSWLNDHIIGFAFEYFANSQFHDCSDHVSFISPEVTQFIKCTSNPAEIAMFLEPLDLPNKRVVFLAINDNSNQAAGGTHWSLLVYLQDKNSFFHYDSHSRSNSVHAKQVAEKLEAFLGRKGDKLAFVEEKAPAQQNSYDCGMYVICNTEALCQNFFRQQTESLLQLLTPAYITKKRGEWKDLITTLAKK

Sequence of RAC-gamma serine/threonine-protein kinase (Q9Y243 whole entry): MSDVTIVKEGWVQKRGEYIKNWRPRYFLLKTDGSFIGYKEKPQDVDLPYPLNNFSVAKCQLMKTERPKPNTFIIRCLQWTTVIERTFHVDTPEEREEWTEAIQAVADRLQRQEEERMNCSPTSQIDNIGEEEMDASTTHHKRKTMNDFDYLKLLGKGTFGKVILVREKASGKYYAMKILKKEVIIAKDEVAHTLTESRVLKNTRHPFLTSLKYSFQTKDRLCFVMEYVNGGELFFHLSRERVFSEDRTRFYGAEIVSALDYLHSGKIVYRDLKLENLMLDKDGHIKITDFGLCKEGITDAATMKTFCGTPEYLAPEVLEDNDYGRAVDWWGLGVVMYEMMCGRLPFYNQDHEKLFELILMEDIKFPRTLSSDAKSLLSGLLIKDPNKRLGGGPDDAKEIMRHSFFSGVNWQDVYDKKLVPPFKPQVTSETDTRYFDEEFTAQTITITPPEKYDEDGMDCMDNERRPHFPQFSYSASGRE
Sequence of Ribosomal protein S6 kinase alpha-3 (P51812 whole entry): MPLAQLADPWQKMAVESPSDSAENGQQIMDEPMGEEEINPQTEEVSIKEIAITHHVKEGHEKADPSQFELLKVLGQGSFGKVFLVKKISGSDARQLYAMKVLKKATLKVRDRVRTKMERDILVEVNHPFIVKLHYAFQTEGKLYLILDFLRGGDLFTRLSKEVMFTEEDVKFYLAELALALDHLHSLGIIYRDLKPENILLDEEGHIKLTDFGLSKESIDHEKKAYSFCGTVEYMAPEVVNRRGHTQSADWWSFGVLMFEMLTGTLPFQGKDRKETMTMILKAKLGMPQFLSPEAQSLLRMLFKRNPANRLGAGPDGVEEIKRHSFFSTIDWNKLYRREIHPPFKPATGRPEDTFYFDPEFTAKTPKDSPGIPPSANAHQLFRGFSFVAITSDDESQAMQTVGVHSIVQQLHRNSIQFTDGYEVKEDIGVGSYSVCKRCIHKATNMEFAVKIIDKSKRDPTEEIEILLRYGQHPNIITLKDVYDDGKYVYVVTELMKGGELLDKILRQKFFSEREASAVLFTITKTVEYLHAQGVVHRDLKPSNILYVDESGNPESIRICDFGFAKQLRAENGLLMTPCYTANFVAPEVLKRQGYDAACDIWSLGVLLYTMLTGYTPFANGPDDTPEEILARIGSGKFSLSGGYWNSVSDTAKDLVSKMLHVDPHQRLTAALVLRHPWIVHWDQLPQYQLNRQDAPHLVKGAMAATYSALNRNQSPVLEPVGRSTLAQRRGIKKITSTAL

Row | Structure (SMILES) | Ki [1] | Ki [2] | Ki [3] | Ki [4] | Ki [5] | IC50 [6] | IC50 [7] | IC50 [8] | IC50 [9]
1 | Oc1c2ccccc2c2c3c(cccc13)N=N2 [SP-600125] | 0.398 µM (active) | > 10 µM (inactive) | 1.26 µM (active) | 0.251 µM (active) | > 10 µM (inactive) | – | – | – | –
2 | O=C(COC(=O)c1ccc([N+](=O)[O-])s1)Nc1cccc(S(=O)(=O)/N=C2/CCCCCN2)c1 | – | – | – | – | – | 10 µM (active) | 7.08 µM (active) | 4.62 µM (active) | 4.92 µM (active)
3 | COc1ccc(C(C[N+](=O)[O-])c2c(C)[nH]n(-c3ccccc3)c2=O)cc1 (stereo not drawn) | – | – | – | – | – | > 100 µM (inactive) | 7.15 µM (active) | 7.1 µM (active) | 8.32 µM (active)
